# Reference: ChEMBL document CHEMBL4622884, “Synthesis of novel 3,5,6-trisubstituted 2-pyridone derivatives and evaluation for their anti-inflammatory activity” (Bioorg Med Chem, 2020)
# The source made the active and inactive calls. No cut-off for these calls is given here.
# Legend:
# Mus musculus [1] = test: Anti-inflammatory activity against croton oil-induced ear edema in Swiss mouse model assessed as inhibition of ear edema at 1.25 mg/ear administered topically immediately after croton oil-stimulation and measured after 6 hrs relative to control; format: functional
# [2] = Cytotoxicity against mouse L929 cells assessed as reduction in cell viability measured after 72 hrs by MTT assay; format: cell-based
# [3] = Cytotoxicity against mouse J774A1 cells assessed as reduction in cell viability measured after 48 hrs by MTT assay; format: cell-based, J774.A1
# Mus musculus [4] = test: Anti-inflammatory activity against croton oil-induced ear edema in Swiss mouse model assessed as inhibition of myeloperoxidase activity at 0.625 mg/ear administered topically immediately after croton oil-stimulation and measured after 6 hrs by microplate spectrophotometry relative to control; format: functional
# Mus musculus [5] = test: Anti-inflammatory activity against croton oil-induced ear edema in Swiss mouse model assessed as inhibition of ear edema at 0.625 mg/ear administered topically immediately after croton oil-stimulation and measured after 6 hrs relative to control; format: functional
# [6] = biological target: T1, Prostaglandin G/H synthase 2 (Homo sapiens) (UniProt P35354); test: Inhibition of recombinant human COX-2 at 31.25 uM by microplate reader based assay relative to control
# T1 sequence (whole entry): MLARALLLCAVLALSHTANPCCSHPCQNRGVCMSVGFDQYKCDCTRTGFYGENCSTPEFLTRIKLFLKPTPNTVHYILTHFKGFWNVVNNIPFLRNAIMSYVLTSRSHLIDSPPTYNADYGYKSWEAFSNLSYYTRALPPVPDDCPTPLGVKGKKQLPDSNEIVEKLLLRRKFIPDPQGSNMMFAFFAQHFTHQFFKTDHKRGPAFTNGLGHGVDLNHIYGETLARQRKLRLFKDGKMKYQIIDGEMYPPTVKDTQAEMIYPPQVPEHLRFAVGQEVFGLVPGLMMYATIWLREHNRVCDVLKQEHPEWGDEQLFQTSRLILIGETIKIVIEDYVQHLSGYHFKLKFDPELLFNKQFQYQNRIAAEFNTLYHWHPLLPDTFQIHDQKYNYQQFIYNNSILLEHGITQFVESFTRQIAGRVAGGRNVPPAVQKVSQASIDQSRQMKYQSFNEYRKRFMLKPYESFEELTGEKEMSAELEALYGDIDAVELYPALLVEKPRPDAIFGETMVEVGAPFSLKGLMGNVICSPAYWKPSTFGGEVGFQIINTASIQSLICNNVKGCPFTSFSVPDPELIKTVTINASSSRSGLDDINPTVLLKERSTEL
# [7] = biological target: T1, Prostaglandin G/H synthase 2 (Homo sapiens); test: Inhibition of recombinant human COX-2 at 1.95 uM by microplate reader based assay relative to control
# [8] = biological target: T2, COX-1 (Prostaglandin G/H synthase 1) (Ovis aries, UniProt P05979); test: Inhibition of ovine COX-1 at 31.25 uM by microplate reader based assay relative to control; details: sheep, ovine COX-1 enzyme
# T2 sequence (P05979 whole entry): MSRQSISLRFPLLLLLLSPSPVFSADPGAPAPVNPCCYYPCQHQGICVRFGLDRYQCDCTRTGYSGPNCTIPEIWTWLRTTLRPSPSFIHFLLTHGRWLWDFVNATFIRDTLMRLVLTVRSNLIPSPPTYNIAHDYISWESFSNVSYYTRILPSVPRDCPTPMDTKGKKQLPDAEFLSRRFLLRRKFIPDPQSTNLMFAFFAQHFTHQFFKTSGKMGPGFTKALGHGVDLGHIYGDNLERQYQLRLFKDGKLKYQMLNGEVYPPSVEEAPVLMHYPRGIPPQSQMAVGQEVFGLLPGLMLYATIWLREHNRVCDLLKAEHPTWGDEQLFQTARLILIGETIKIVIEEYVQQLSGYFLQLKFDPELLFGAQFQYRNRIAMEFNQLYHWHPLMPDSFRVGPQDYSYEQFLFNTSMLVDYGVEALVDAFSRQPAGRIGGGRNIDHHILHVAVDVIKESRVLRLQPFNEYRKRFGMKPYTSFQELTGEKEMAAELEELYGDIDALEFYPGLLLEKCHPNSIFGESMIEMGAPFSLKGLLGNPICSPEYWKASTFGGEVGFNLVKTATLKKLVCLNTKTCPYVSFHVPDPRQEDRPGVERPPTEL
# Mus musculus [9] = test: Anti-inflammatory activity against croton oil-induced ear edema in Swiss mouse model assessed as inhibition of myeloperoxidase activity at 1.25 mg/ear administered topically immediately after croton oil-stimulation and measured after 6 hrs by microplate spectrophotometry relative to control; format: functional
# [10] = biological target: T2, COX-1 (Prostaglandin G/H synthase 1); test: Inhibition of ovine COX-1 at 1.95 uM by microplate reader based assay relative to control; details: sheep, ovine COX-1 enzyme
# Mus musculus [11] = test: Anti-inflammatory activity against croton oil-induced ear edema in Swiss mouse model assessed as inhibition of ear edema at 1 mg/ear administered topically immediately after croton oil-stimulation and measured after 6 hrs relative to control; format: functional
# Mus musculus [12] = test: Anti-inflammatory activity against croton oil-induced ear edema in Swiss mouse model assessed as inhibition of myeloperoxidase activity at 1 mg/ear administered topically immediately after croton oil-stimulation and measured after 6 hrs by microplate spectrophotometry relative to control; format: functional
# Ovis aries = species: Ovis aries; test: Selectivity index, ratio of IC50 of ovine COX-1 to […]
Compound,CC50 at 72 h [2],CC50 at 48 h [3],inhibition (INH) (Mus musculus [1]),inhibition (INH) (Mus musculus [4]),inhibition (INH) (Mus musculus [5]),inhibition (INH) (Mus musculus [9]),also measured
CCOC(=O)c1[nH]c(=O)c(C#N)cc1C(=O)c1ccc(OC)cc1,259 µM,< 100 µM,–,–,–,–,inhibition (Mus musculus [1]): Active
O=C(c1ccc([N+](=O)[O-])cc1)c1cc(C(=O)O)c(=O)[nH]c1C(=O)O,439 µM,388 µM,93%,99.6%,90.8%,94.3%,inhibition [6]: 38.1%; inhibition [7]: 20.2%; inhibition at 31.25 µM [8]: 36.8%; inhibition at 1.95 µM [10]: 12.4%
CCOC(=O)c1[nH]c(=O)c(C#N)cc1C(=O)c1ccc(Br)cc1,242 µM,< 100 µM,–,–,–,–,inhibition (Mus musculus [1]): Active
O=C(c1ccc(Cl)cc1)c1cc(C(=O)O)c(=O)[nH]c1C(=O)O,–,–,54.2%,89.4%,84%,99%,–
COc1ccc2c(c1)c(CC(=O)O)c(C)n2C(=O)c1ccc(Cl)cc1 [INDOMETHACIN],–,–,–,–,–,–,inhibition (INH) (Mus musculus [11]): 98.2%; inhibition (INH) (Mus musculus [12]): 48%
CCOC(=O)c1[nH]c(=O)c(C#N)cc1C(=O)c1ccc(Cl)cc1.CNC,–,–,71.3%,99%,70.1%,99.9%,–
CCOC(=O)c1[nH]c(=O)c(C#N)cc1C(=O)c1ccc([N+](=O)[O-])cc1,213 µM,< 100 µM,93%,99%,–,99%,–
CCOC(=O)c1[nH]c(=O)c(C(=O)OCC)cc1C(=O)c1ccc([N+](=O)[O-])cc1,–,–,87.9%,99%,66.3%,99%,–
N#Cc1cc(C(=O)c2ccc(Cl)cc2)c(C(=O)O)[nH]c1=O,–,–,–,84.5%,74.5%,–,–
CCOC(=O)c1[nH]c(=O)c(C(=O)O)cc1C(=O)c1ccc(Cl)cc1,–,–,–,99%,–,93%,–
CCOC(=O)c1[nH]c(=O)c(C#N)cc1C(=O)c1ccc(C)cc1,512 µM,194 µM,–,–,–,–,inhibition (Mus musculus [1]): Active
CCOC(=O)c1[nH]c(=O)c(C#N)cc1C(=O)c1ccc(F)cc1,232 µM,< 100 µM,–,–,–,–,inhibition (Mus musculus [1]): Active
CCOC(=O)c1[nH]c(=O)c(C#N)cc1C(=O)c1ccc([N+](=O)[O-])cc1.CNC [listing 1 of 2 here],257 µM,< 100 µM,98.9%,99%,70%,98.9%,inhibition at 31.25 µM [8]: 16.3%
CCOC(=O)c1[nH]c(=O)c(C#N)cc1C(=O)c1ccc(Cl)cc1,218 µM,< 100 µM,73.9%,99%,–,99%,–
CCOC(=O)c1[nH]c(=O)c(C#N)cc1C(=O)c1ccccc1,465 µM,215 µM,–,–,–,–,inhibition (Mus musculus [1]): Active
CCOC(=O)c1[nH]c(=O)c(C#N)cc1C(=O)c1ccc([N+](=O)[O-])cc1.CNC [listing 2 of 2 here],–,–,–,–,–,–,inhibition [6]: 10.1%; inhibition [7]: 74%
CS(=O)(=O)c1ccc(-c2cc(Cn3ccnc3)c3ccc(C4CCCCC4)c(C4CCCCC4)c3n2)cc1,–,–,–,–,–,–,Ratio IC50 (Ovis aries): 548
CCOC(=O)c1[nH]c(=O)c(C(=O)OCC)cc1C(=O)c1ccc(Cl)cc1,–,–,–,94.4%,–,88.1%,–
N#Cc1cc(C(=O)c2ccc([N+](=O)[O-])cc2)c(C(=O)O)[nH]c1=O,–,–,64.6%,99%,–,97.6%,–
